One block for each molecule: values may come before it. Starred links: 1 amine or outer side, 2 acyl side, 3 side chain; linkers in the order of their positions; H or OH if unused. Non-standard residues stand in square brackets, D forms with d. Residues, ends and D or L forms follow the SMILES beside them. X3 = O=C1C[C@](Cc2ccc(O)cc2)(N[*:1])[C@@H]2SC[C@@H](C(=O)[*:2])N12; X4 = O=C1C[C@](Cc2ccc(O)cc2)(N[*:1])[C@H]2SC[C@@H](C(=O)[*:2])N12; X1 = CC1(C)SC[C@@H](C(=O)[*:2])N1[*:1]; X2 = CC1(C)OC[C@@H](C(=O)[*:2])N1[*:1]; Thz = O=C(O)[C@@H]1CSCN1
Experiments:
[1] = biological target: Human immunodeficiency virus type 1 protease (Human immunodeficiency virus 1, UniProt Q72874); assay: Inhibition of HIV1 protease
[2] = biological target: D(2) dopamine receptor (Homo sapiens) (UniProt P14416); settings: dose 1.0 10^-7M
Chain of D(2) dopamine receptor (Homo sapiens) (P14416 whole entry): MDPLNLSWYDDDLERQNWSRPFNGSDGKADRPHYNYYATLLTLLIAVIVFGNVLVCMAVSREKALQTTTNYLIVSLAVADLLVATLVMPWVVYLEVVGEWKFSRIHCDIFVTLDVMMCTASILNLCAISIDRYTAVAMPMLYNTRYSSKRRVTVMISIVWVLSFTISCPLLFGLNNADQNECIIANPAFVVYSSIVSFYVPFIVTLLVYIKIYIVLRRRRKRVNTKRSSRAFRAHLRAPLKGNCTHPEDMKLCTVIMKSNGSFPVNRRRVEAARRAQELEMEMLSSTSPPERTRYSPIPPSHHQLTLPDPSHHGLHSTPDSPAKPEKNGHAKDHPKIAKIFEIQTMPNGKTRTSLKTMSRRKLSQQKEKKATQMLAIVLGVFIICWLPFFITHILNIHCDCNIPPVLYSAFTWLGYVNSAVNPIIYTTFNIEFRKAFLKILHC

[3] = biological target: D(2) dopamine receptor (Homo sapiens) (UniProt P14416); settings: dose 1.0 10^-8M
[4] = biological target: T1, Type-1 angiotensin II receptor A (Rattus norvegicus, UniProt P25095); assay: Displacement of [I125I]AngII form AT1 receptor in rat liver membrane incubated for 1.5 hrs by gamma counting method; format: cell membranes
T1 sequence (P25095 whole entry): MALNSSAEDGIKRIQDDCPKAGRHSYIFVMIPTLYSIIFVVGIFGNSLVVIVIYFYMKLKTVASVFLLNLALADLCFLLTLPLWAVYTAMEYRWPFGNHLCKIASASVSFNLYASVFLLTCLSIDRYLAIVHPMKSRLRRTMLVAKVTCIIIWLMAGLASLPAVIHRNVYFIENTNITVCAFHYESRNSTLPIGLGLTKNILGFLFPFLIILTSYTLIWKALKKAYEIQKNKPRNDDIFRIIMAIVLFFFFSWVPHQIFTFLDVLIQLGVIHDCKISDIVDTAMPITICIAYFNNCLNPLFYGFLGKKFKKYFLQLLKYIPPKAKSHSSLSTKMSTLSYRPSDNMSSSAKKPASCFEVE

[5] = biological target: T2, Type-2 angiotensin II receptor (Rattus norvegicus, UniProt P35351); assay: Displacement of [I125I]AngII form AT2 receptor in rat liver membrane incubated for 1.5 hrs by gamma counting method; format: cell membranes
T2 sequence (P35351 whole entry): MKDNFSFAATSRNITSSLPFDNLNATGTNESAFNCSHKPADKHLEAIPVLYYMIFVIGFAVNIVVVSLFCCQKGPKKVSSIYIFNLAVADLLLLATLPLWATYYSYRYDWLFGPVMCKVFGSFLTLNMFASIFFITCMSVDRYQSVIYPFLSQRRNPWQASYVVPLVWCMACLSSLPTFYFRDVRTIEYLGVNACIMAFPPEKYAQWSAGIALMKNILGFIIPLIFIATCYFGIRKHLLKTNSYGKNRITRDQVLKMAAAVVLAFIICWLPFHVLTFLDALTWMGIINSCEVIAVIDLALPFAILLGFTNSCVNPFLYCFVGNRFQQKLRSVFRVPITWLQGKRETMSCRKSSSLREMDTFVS

[6] = biological target: Angiotensin-converting enzyme (Homo sapiens, UniProt P12821); assay: Inhibition of ACE (unknown origin)
Chain of Angiotensin-converting enzyme (P12821 whole entry): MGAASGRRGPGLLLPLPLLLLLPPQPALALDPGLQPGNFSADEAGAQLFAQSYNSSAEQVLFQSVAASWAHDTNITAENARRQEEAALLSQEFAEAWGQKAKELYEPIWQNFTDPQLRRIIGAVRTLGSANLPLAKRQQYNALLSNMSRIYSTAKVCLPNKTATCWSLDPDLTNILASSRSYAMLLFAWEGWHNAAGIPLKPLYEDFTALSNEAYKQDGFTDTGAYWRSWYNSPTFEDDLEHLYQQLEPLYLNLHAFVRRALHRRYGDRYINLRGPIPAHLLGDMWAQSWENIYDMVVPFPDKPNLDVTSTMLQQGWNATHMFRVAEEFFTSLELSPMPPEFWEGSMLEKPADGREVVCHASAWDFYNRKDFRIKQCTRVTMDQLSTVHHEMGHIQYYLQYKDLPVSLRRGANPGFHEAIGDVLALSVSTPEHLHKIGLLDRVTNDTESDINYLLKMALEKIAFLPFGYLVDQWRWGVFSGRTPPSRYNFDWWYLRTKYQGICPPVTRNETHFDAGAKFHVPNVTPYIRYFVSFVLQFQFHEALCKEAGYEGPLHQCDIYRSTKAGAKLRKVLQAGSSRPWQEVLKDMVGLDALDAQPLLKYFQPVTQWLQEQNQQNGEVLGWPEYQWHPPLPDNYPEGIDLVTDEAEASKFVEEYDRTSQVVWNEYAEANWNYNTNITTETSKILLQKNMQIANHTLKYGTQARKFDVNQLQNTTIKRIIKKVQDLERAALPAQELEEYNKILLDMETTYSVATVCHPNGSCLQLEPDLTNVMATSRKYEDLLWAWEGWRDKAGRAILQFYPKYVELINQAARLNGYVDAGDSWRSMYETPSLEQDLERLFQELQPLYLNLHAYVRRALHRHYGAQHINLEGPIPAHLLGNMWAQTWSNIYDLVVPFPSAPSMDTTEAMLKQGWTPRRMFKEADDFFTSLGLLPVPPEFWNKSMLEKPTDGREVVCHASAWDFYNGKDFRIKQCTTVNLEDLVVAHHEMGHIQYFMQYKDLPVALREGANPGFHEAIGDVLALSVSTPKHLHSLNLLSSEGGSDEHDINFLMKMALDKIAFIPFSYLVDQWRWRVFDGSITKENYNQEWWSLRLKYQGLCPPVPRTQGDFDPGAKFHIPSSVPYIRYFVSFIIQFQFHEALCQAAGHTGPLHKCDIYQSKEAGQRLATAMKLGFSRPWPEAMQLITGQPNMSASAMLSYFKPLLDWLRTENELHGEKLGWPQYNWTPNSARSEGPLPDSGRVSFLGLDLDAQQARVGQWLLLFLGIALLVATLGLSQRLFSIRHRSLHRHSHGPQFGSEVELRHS

[7] = test system: Periplaneta americana; assay: Diuretic activity in Periplaneta americana assessed as hindgut contraction by measuring maximal response incubated for 5 mins by myotropic assay relative to control; format: functional
[8] = test system: Periplaneta americana; assay: Diuretic activity in Periplaneta americana assessed as hindgut contraction incubated for 5 mins by myotropic assay; format: functional
[9] = test system: Periplaneta americana; assay: Diuretic activity in Periplaneta americana assessed as hindgut contraction by measuring lasting time incubated for 5 mins by myotropic assay; format: functional
[10] = Half life in monkey at 3 mg/kg, po or iv; format: ADME, organism-based, Macaca mulatta; settings: rhesus monkey, in vivo
[11] = Volume of distribution at steady state in rat at 10 mg/kg, iv; format: ADME, organism-based; settings: in vivo, read-out: Vdss
[12] = Half life in dog at 3 mg/kg, po or iv; format: ADME, organism-based, Canis lupus familiaris; settings: in vivo
[13] = Half life in rat at 10 mg/kg, po or iv; format: ADME, organism-based; settings: in vivo
[14] = Clearance in dog at 3 mg/kg, iv; format: ADME, organism-based, Canis lupus familiaris; settings: in vivo
[15] = Oral bioavailability in dog at 3 mg/kg; format: ADME, organism-based, Canis lupus familiaris; settings: in vivo
[16] = Oral bioavailability in rat at 10 mg/kg; format: ADME, organism-based; settings: in vivo
[17] = Metabolic stability in pooled human liver microsomes assessed as parent compound remaining measured after 1 hr; format: ADME, Microsome; settings: read-out: Stability
[18] = Clearance in rat at 10 mg/kg, iv; format: ADME, organism-based; settings: in vivo
[19] = Clearance in monkey at 3 mg/kg, iv; format: ADME, organism-based, Macaca mulatta; settings: rhesus monkey, in vivo
[20] = Volume of distribution at steady state in dog at 3 mg/kg, iv; format: ADME, organism-based, Canis lupus familiaris; settings: in vivo, read-out: Vdss
[21] = Oral bioavailability in monkey at 3 mg/kg; format: ADME, organism-based, Macaca mulatta; settings: rhesus monkey, in vivo
[22] = Volume of distribution at steady state in monkey at 3 mg/kg, iv; format: ADME, organism-based, Macaca mulatta; settings: rhesus monkey, in vivo, read-out: Vdss
[23] = Half life in rat at 2 mg/kg, po; format: ADME, organism-based; settings: in vivo
[24] = Oral bioavailability in rat at 2 mg/kg; format: ADME, organism-based; settings: in vivo
[25] = biological target: Dipeptidyl peptidase 4 (Homo sapiens, UniProt P27487); assay: Inhibition of DPP4 (unknown origin)
Chain of Dipeptidyl peptidase 4 (P27487 whole entry): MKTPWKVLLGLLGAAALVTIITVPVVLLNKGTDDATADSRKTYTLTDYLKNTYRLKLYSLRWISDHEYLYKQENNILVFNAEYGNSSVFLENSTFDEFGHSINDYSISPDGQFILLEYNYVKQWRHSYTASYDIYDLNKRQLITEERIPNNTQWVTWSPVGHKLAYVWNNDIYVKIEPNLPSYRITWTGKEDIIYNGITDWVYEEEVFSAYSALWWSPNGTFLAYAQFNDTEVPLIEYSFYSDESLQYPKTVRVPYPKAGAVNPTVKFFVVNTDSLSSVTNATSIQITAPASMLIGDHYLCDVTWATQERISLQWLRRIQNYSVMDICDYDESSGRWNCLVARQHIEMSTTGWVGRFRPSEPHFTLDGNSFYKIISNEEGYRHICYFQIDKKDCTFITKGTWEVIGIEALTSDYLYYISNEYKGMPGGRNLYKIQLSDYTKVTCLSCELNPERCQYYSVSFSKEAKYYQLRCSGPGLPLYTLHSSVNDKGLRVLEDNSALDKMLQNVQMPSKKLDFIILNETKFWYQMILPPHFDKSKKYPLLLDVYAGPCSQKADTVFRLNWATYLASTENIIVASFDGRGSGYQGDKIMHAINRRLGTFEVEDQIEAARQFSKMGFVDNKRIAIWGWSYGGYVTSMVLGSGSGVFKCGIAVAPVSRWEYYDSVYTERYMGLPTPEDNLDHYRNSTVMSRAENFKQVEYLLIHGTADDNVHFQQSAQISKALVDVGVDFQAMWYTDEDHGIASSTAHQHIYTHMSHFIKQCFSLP

[26] = Tmax in rat at 10 mg/kg, ID; format: ADME, organism-based; settings: in vivo
[27] = Half life in rat at 10 mg/kg, iv; format: ADME, organism-based; settings: in vivo
[28] = Bioavailability in rat under fed condition at 10 mg/kg, ID; format: ADME, organism-based; settings: in vivo
[29] = Bioavailability in rat under fasted condition at 10 mg/kg, ID; format: ADME, organism-based; settings: in vivo
[30] = Octanol-water partition coefficient, logP of the compound; format: physicochemical
[31] = biological target: T3, Prolyl endopeptidase (Homo sapiens, UniProt P48147); assay: Inhibition of POP (unknown origin)
T3 sequence (P48147 whole entry): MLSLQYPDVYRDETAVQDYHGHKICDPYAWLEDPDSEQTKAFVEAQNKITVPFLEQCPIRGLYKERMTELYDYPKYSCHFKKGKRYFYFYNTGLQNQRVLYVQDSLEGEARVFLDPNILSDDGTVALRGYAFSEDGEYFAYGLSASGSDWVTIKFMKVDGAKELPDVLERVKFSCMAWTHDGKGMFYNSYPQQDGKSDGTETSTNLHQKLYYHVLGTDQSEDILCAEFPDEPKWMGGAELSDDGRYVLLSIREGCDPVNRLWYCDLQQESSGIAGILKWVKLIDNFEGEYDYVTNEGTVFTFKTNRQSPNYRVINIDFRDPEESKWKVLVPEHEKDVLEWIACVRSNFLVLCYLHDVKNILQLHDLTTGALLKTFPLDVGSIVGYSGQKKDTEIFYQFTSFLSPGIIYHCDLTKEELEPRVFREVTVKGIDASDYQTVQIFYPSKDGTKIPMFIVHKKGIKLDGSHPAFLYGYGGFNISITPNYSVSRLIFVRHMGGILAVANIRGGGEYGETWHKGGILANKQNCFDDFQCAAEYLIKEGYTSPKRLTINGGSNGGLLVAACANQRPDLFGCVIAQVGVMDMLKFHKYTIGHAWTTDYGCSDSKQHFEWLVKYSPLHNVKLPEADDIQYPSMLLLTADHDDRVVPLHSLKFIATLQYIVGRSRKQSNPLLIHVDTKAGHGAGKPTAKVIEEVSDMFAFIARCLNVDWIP

[32] = biological target: Neurotensin receptor type 2 (Homo sapiens, UniProt O95665); assay: Inhibition of human NTR2
Chain of Neurotensin receptor type 2 (O95665 whole entry): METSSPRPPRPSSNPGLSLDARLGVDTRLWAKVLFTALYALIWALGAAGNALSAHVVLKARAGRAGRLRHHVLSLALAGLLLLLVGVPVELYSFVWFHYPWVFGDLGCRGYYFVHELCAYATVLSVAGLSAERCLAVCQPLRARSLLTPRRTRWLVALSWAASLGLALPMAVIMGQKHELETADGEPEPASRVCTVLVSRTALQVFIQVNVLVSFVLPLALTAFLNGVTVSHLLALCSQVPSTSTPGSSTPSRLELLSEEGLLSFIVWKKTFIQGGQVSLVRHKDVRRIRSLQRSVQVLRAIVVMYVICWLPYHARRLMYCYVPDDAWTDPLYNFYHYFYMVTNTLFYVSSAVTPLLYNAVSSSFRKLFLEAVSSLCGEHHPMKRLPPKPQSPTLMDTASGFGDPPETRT

IC50 [1]: 89 nM
Compound: CC(C)(C)NC(=O)[C@@H]1CCCN1C(=O)[C@@H](O)[C@H](Cc1ccccc1)NC(=O)[C@H](CC(N)=O)NC(=O)OCc1ccccc1

IC50 [1]: 8.8 nM
Compound: CC(C)(C)NC(=O)[C@@H]1CSCN1C(=O)[C@@H](O)[C@H](Cc1ccccc1)NC(=O)[C@H](CC(N)=O)NC(=O)COc1cccc2ccccc12

EC50 [8]: 0.736 nM
Compound: NC(=O)CNC(=O)[C@H](Cc1c[nH]c2ccccc12)NC(=O)[C@@H]1CSCN1C(=O)[C@H](Cc1ccccc1)NC(=O)[C@@H](N)Cc1ccccc1 (H-FF[Thz]WG-NH2)
Activity [7]: 71.5%
Time [9]: 78 s

EC50 [8]: 0.794 nM
Compound: NC(=O)CNC(=O)[C@H](Cc1c[nH]c2ccccc12)NC(=O)[C@@H]1CCCN1C(=O)[C@H](Cc1ccccc1)NC(=O)[C@@H](N)Cc1ccccc1 (H-FFPWG-NH2)
Activity [7]: 66.8%
Time [9]: 72 s

Tmax [26]: 1 h
half-life [27]: 1.55 h
bioavailability [28]: 33%
bioavailability [29]: 33%
Compound: Cc1ccccc1CNC(=O)[C@H]1N(C(=O)[C@@H](O)[C@H](Cc2ccccc2)NC(=O)c2cccc(O)c2C)CSC1(C)C

IC50 [1]: 6.5 nM
Ki [1]: 0.74 nM
Compound: CSC[C@H](NC(=O)COc1cccc2cnccc12)C(=O)N[C@@H](Cc1ccccc1)[C@H](O)C(=O)N1CSC[C@H]1C(=O)NC(C)(C)C

IC50 [1]: 31 nM
Compound: CC(C)(C)NC(=O)[C@@H]1CSCN1C(=O)[C@@H](O)[C@H](Cc1ccccc1)NC(=O)[C@H](CC(N)=O)NC(=O)OCc1ccccc1

EC50 [8]: 0.708 nM
Compound: CC1(C)SC[C@@H](C(=O)N[C@@H](Cc2c[nH]c3ccccc23)C(=O)NCC(N)=O)N1C(=O)[C@H](Cc1ccccc1)NC(=O)[C@@H](N)Cc1ccccc1 (H-FF[X1]WG-NH2)
Activity [7]: 100.6%
Time [9]: 108 s

IC50 [1]: 2.8 nM
Compound: CC(C)(C)NC(=O)[C@H]1N(C(=O)[C@@H](O)[C@H](Cc2ccccc2)NC(=O)[C@H](CC(N)=O)NC(=O)COc2cccc3ccccc23)CSC1(C)C

Further lines, the molecule ahead of its results:

Compound: NC(=O)[C@@H]1CS[C@@H]2CC[C@]3(CCCN3C(=O)[C@@H]3CCCN3)C(=O)N21
inhibition [2]: 21.4%

Compound: NC(=O)[C@H]1CS[C@@H]2CC[C@]3(CCCN3C(=O)[C@@H]3CCCN3)C(=O)N12
inhibition [3]: 14.6%

Compound: CC(C)C[C@H](NC(=O)[C@H](CCCNC(=N)N)NC(=O)[C@@H](N)CC(=O)O)C(=O)N[C@@]1(Cc2ccc(O)cc2)CC(=O)N2[C@H](C(=O)N[C@@H](Cc3c[nH]cn3)C(=O)N3CCC[C@H]3C(=O)N[C@@H](Cc3ccccc3)C(=O)O)CS[C@@H]21 (H-DRL[X4]HPF-OH)
Ki [4]: > 10000 nM
Ki [5]: 3.7 nM

Compound: C[C@H](CS)C(=O)N1CSC[C@H]1C(=O)O
IC50 [6]: 372 nM

Compound: C[C@H](CS)C(=O)N1CCS[C@H]1C(=O)O
IC50 [6]: 832 nM

Compound: CC(C)C[C@H](NC(=O)[C@H](CCCNC(=N)N)NC(=O)[C@@H](N)CC(=O)O)C(=O)N[C@@]1(Cc2ccc(O)cc2)CC(=O)N2[C@H]1SC[C@H]2C(=O)N[C@@H](Cc1c[nH]cn1)C(=O)N1CCC[C@H]1C(=O)N[C@@H](Cc1ccccc1)C(=O)O (H-DRL[X3]HPF-OH)
Ki [4]: > 10000 nM
Ki [5]: 1 nM

Compound: CC(C)[C@@H](Nc1ccc(CNC(=O)[C@@H]2SCCN2C(=O)C[C@H](N)Cc2cc(F)c(F)cc2F)cc1)C(=O)O
half-life [10]: > 3 h
Vd [11]: 0.3 L/kg
half-life [12]: > 3 h
half-life [13]: > 3 h
clearance [14]: 16.7 mL/min/kg
bioavailability [15]: < 2.5%
bioavailability [16]: < 2.5%
remaining at 1 h [17]: 98.9%
clearance [18]: 16.7 mL/min/kg
clearance [19]: 16.7 mL/min/kg
Vd [20]: 0.3 L/kg
bioavailability [21]: < 2.5%
Vd [22]: 0.3 L/kg

Compound: CC(C)[C@H](Nc1ccc(CNC(=O)[C@@H]2CCCN2C(=O)C[C@H](N)Cc2cc(F)ccc2F)cc1)C(=O)O
half-life [23]: 0.63 h
bioavailability [24]: 1.2%
IC50 [25]: 0.48 nM

Compound: C[Si]1(C)C[C@@H](C(=O)O)N(C(=O)OCC2c3ccccc3-c3ccccc32)C1
logP [30]: 1.3

Compound: N#C[C@@H]1CS[C@H]2C[C@H](NC(=O)OCc3ccccc3)C(=O)N12
IC50 [31]: 100000 nM

Compound: CC(C)[C@H](Nc1ccc(CNC(=O)[C@@H]2CSCN2C(=O)C[C@H](N)Cc2cc(F)ccc2F)cc1)C(=O)O
bioavailability [15]: < 2.5%
bioavailability [16]: < 2.5%
IC50 [25]: 0.3 nM
bioavailability [21]: < 2.5%

Compound: CC1(C)OC[C@@H](C(=O)N[C@@H](Cc2c[nH]c3ccccc23)C(=O)NCC(N)=O)N1C(=O)[C@H](Cc1ccccc1)NC(=O)[C@@H](N)Cc1ccccc1 (H-FF[X2]WG-NH2)
Activity [7]: 120.1%
EC50 [8]: 0.614 nM
Time [9]: 120 s

Compound: O=C(O)[C@@H]1CCCN1C(=O)OCC1c2ccccc2-c2ccccc21
logP [30]: 0.094

Compound: CC[C@H](C)[C@H](NC(=O)[C@H](Cc1ccc(O)cc1)NC(=O)[C@@H]1C[Si](C)(C)CN1C(=O)[C@H](CCCCN)NC(=O)[C@@H](N)CCCCN)C(=O)N[C@@H](CC(C)C)C(=O)O
IC50 [32]: 5 nM

Compound: CC[C@H](C)[C@H](NC(=O)[C@H](Cc1ccc(O)cc1)NC(=O)[C@@H]1CCCN1C(=O)[C@H](CCCCN)NC(=O)[C@@H](N)CCCCN)C(=O)N[C@@H](CC(C)C)C(=O)O
IC50 [32]: 0.47 nM

— ChEMBL document CHEMBL5226360, “Pseudoprolines as stereoelectronically tunable proline isosteres” (Bioorg Med Chem Lett, 2022)
